Consider four compounds from patent publication US11512279B2, “Technology to generate and utilize customized microorganism-growth assay keys” (priority 2018, dated 2022).

The subject of test [1] is C. auris. As to the kind of experiment: Differentiation of C. auris from other Candida species with other QACs in growth media. It counts as cell-based. To be noted: QAC added to growth medium.
Test [2] has as its system C. auris. As to the kind of experiment: Plate assay on Sabouraud dextrose medium with tBHP (FIGS. 13A-13B). The test is classed as cell-based, Candida auris. To be noted: 30° C. The protocol: FIGS. 13A-13B illustrate C. auris's relative sensitivity to tBHP. FIG. 13A depicts a plate with a tBHP-containing culture medium that includes seven different yeasts (Candida albicans, Candida glabrata, Candida krusei, Candida auris, Candida haemulonii, Candida famata, and Saccharomyces cerevisiae) at five different calculated cell counts (62, 625, 6,250, […], with the uncertainty inherent in the calculation). The yeast-containing plate was incubated at 30° C. The plating scheme is illustrated in FIG. 1. The culture medium comprised a Sabouraud dextrose medium with tBHP (added after autoclaving the other media ingredients from a 70% solution in water). Whereas a resuspension of cells picked from a colony will always enhance the sensitivity of this (and related) assays, it is possible to streak cells without any dilution directly from a colony if the plate is evaluated early (after approximately 24 hours, some regrowth will occur later), as depicted in FIG. 13B. […]

Test [3] has as its system Candida auris. Briefly: BAC media panel growth key (Table A, FIG. 19). The test is classed as cell-based. To be noted: BAC low 1.5 mg/l or high 10 mg/l; pH 3.3 or 7.5; peptone, potato dextrose or YNB with amino acids; 23° C. or 37° C. The text has this:
(§1) As an example, a group of 36 yeast strains with Candida-like morphology representing 29 different species was used to define single species or subgroups of species depending on their QAC sensitivity at different temperatures, pH values and in the presence of different supplements (e.g. peptone, potato dextrose, and YNB with amino acids).
(§2) Preliminary tests were designed with several representative yeast strains with a range of benzalkonium chloride (“BAC”) concentrations, a mix of supplements, neutral pH, and intermediate temperature (30° C.). The observed growth characteristics made it likely that two BAC concentrations (“low”=1.5 mg/l and “high”=10 mg/l) could be used in conjunction with the three different growth supplements (used separately). Low and high pH and temperature values were defined to elicit species-specific growth responses: two different pH conditions (pH 3.3 and pH 7.5, adjusted with concentrations of HCl or 100 mg/ml NaOH) and incubation temperatures (23° C. and 37° C.). Commonly used concentrations for peptone (20 g/l), potato dextrose (24 g/l), and yeast nitrogen base with amino acids (6.7 g/l) were applied. […] For example: “pH7.5/low BAC/Pep-23° C.” refers to a plate with pH 7.5, […] BAC (low BAC) containing peptone as a growth supplement and incubated at 23° C.
(§3) All 36 strains were streaked and precultured for 48 h on Sabauroud-dextrose medium at 30° C. before cell samples were suspended in water (as described before). 10-15 μl drops of these suspensions were applied to the different media and plates were incubated in parallel at 37° C. and 23° C. These drops were classified as growing (+) or non-growing (−) after 3 days or 5 days of incubation, respectively.

Test [4] deals with Candida valida. Briefly: BAC media panel growth key (Table A, FIG. 19). The test is classed as cell-based. To be noted: BAC low 1.5 mg/l or high 10 mg/l; pH 3.3 or 7.5; peptone, potato dextrose or YNB with amino acids; 23° C. or 37° C.
Description: as §1, §2, §3

Test [5] concerns Candida rugosa. As to the kind of experiment: BAC media panel growth key (Table A, FIG. 19). It counts as cell-based. As to conditions: BAC low 1.5 mg/l or high 10 mg/l; pH 3.3 or 7.5; peptone, potato dextrose or YNB with amino acids; 23° C. or 37° C.
Description: as §1, §2, §3

Test [6] has as its system Candida guilliermondii. As to the kind of experiment: BAC media panel growth key (Table A, FIG. 19). It counts as cell-based. To be noted: BAC low 1.5 mg/l or high 10 mg/l; pH 3.3 or 7.5; peptone, potato dextrose or YNB with amino acids; 23° C. or 37° C.
Description: as §1, §2, §3

Turning to `CCCCCCCCCCCCCC[N+](C)(C)C.[Br-]` [tetradecyltrimethylammonium bromide], the “use to differentiate C. auris from other Candida species” value (“use to differentiate C. auris” for short) in test [1] was “successfully used”.

Regarding `CC(C)(C)OO` [tert-butyl-hydroperoxide], the “sensitivity to tBHP relative to other yeasts” value in test [2] is reported as “relatively high sensitivity”.

Regarding `CC(C)(C)CC(C)(C)c1ccc(OCCOCC[N+](C)(C)Cc2ccccc2)cc1` [benzethonium chloride], the “use to differentiate C. auris” value in test [1] was “successfully used”.

Turning to benzalkonium chloride, the “use to differentiate C. auris” value in test [1] is “successfully used”. Moreover, the “growth pattern over 24 BAC / supplement / pH / temperature conditions” value in test [3] is “resistance to BAC under virtually all conditions”; in test [4] it was “BAC sensitivity under all conditions”; in test [5], “growth at the high concentration appears to be restricted to the low pH”; in test [6], “growth is observed under all conditions at 23 °C but not 37 °C”.
